Results on 14 molecules are retold here after patent US20240246992A1, “MACROCYCLIC LRRK2 KINASE INHIBITORS” (LES LABORATOIRES SERVIER, priority 2021, published 2024).

Chain of human recombinant LRRK2 protein (Q5S007 whole entry): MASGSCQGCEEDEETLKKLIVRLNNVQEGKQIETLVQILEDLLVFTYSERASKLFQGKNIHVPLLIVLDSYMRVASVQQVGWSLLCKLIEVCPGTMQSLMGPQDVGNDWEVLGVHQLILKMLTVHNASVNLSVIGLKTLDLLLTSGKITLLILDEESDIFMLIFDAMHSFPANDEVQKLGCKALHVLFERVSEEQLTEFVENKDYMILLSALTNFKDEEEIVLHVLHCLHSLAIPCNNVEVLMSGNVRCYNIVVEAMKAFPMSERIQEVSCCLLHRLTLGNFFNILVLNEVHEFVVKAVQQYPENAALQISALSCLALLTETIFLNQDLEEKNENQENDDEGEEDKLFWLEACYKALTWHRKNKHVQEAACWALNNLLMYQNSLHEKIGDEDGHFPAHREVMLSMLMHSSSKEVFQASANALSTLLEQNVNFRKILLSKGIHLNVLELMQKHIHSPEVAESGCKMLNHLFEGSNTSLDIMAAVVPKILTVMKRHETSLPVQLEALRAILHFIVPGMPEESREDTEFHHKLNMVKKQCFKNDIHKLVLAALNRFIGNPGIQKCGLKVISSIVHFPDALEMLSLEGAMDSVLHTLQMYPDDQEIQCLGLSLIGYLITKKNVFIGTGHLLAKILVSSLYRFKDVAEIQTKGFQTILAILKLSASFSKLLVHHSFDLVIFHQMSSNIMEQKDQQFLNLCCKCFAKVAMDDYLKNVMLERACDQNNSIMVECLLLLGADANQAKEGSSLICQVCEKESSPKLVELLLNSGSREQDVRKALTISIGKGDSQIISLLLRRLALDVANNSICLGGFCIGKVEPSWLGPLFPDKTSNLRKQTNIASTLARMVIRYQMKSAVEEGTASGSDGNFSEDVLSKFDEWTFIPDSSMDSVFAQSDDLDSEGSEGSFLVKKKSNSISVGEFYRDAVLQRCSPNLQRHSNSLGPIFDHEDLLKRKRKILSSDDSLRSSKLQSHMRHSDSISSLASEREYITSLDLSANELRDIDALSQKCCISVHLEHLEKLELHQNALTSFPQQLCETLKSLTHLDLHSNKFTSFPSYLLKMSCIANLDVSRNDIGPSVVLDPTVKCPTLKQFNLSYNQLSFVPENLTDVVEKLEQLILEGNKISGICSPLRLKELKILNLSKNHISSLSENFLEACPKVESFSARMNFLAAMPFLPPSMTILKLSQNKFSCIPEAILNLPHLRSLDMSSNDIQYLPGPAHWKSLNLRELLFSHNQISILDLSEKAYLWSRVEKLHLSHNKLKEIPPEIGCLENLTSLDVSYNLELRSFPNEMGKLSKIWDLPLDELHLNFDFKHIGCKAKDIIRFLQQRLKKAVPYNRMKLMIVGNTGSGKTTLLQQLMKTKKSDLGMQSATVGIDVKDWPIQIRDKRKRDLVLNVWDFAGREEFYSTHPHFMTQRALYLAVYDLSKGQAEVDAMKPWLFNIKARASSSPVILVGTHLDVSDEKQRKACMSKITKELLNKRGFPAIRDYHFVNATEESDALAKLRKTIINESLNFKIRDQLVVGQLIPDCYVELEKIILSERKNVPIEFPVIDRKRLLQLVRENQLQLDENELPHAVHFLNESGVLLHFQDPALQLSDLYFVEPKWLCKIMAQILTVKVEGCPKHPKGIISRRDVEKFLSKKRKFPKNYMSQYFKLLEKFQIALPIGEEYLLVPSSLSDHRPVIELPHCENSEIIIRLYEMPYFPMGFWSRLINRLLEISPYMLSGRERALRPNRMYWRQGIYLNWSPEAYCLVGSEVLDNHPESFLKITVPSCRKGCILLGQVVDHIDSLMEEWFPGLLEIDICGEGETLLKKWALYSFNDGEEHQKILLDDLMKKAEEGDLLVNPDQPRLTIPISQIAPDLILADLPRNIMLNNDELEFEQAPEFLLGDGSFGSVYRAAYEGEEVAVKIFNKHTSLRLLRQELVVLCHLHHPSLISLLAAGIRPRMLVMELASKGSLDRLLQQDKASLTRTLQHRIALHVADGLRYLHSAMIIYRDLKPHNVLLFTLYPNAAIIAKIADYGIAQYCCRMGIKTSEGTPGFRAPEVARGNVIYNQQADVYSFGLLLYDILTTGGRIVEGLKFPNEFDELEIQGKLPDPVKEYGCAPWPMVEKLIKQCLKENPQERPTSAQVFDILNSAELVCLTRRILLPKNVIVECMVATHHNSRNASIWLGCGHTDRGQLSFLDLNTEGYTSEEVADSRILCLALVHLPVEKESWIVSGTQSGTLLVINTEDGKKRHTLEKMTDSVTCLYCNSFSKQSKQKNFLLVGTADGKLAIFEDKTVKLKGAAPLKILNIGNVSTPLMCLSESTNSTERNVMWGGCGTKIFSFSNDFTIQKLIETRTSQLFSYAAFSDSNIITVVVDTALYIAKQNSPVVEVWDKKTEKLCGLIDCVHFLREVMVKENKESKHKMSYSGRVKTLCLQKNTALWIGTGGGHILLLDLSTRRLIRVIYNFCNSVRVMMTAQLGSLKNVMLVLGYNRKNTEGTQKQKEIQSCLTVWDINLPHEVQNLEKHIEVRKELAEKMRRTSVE

This experiment concerns the target human recombinant LRRK2 protein (Homo sapiens, UniProt Q5S007). Briefly: LRRK2 kinase activity assay (ADP-Glo, LRRKtide peptide). The experiment is classed as biochemical. The note with it: human recombinant LRRK2 wt, LRRKtide peptide and ATP, 1 h at 37° C. An outline of the steps:
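ADP-Glo luminescence read-out of a peptide assay: compound, ATP and LRRKtide substrate combined with recombinant human LRRK2 and incubated at 37 °C for 1 h. Ten-point data, N=2, curve-fitted to IC50.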
By IC50 is commonly meant the midpoint of a concentration-inhibition curve. For `O=C1CCc2cncc(c2)-c2n[nH]c3ccc(cc23)OCCCN1` [Example 220, 14-oxa-4,10,19,20-tetraazatetracyclo[13.5.2.1^2,6.0^18,21]tricosa-1(20),2(23),3,5,15(22),16,18(21)-heptaen-9-one], the IC50 was under 10 nM.

Regarding `C[C@@H]1CCOC[C@@H](C)Oc2cncc(c2)-c2n[nH]c3ccc(cc23)O1` [Example 23, (8R,13R)-8,13-dimethyl-7,10,14-trioxa-4,19,20-triazatetracyclo[13.5.2.1^2,6.0^18,21]tricosa-1(20),2(23),3,5,15(22),16,18(21)-heptaene], the IC50 was under 10 nM.

`C[C@@H]1CCOCCOc2cncc(n2)-c2n[nH]c3ccc(cc23)O1` [Example 41, (13R)-13-methyl-7,10,14-trioxa-4,19,20,23-tetraazatetracyclo[13.5.2.1^2,6.0^18,21]tricosa-1(20),2(23),3,5,15(22),16,18(21)-heptaene]: the IC50 was under 10 nM.

`C[C@H]1COc2cc3c(n[nH]c3cn2)-c2cnn(c2)CCOCCO1` [Example 246]: the IC50 was under 100 nM.

With `O=C1COc2cc(F)cc(c2)-c2n[nH]c3ccc(cc23)OCCCN1` [Example 195, 4-fluoro-7,14-dioxa-10,19,20-triazatetracyclo[13.5.2.1^2,6.0^18,21]tricosa-1(20),2(23),3,5,15(22),16,18(21)-heptaen-9-one], the IC50 is under 10 nM.

On to `O=C1COc2cc(cc(C3CCCOC3)c2)-c2n[nH]c3ccc(cc23)OCCCN1` (centres unmarked) [Example 148, 4-(oxan-3-yl)-7,14-dioxa-10,19,20-triazatetracyclo[13.5.2.1^2,6.0^18,21]tricosa-1(20),2(23),3,5,15,17,21-heptaen-9-one], for which the IC50 is under 10 nM.

As for `C[C@@H]1Cn2cc(cn2)-c2n[nH]c3ccc(cc23)OCCOCCO1` [Example 77, (7R)-7-methyl-8,11,14-trioxa-4,5,19,20-tetraazatetracyclo[13.5.2.1^2,5.0^18,21] tricosa-1(20),2(23),3,15(22),16,18(21)-hexaene], the IC50 was under 100 nM.

In the case of `C[C@H]1COCCOCCn2ncc(n2)-c2n[nH]c3ccc(cc23)O1` [Example 81, (13S)-13-methyl-8,11,14-trioxa-4,5,19,20,23-pentaazatetracyclo[13.5.2.1^2,5.0^18,21]tricosa-1(20),2(23),3,15(22),16,18(21)-hexaene], the IC50 was under 100 nM.

Consider `C[C@H]1COCCOCCn2cc(cn2)-c2n[nH]c3ccc(cc23)O1` [Example 24, (13S)-13-methyl-8,11,14-trioxa-4,5,19,20-tetraazatetracyclo[13.5.2.1^2,5.0^18,21]tricosa-1(20),2(23),3,15(22),16,18(21)-hexaene], for which the IC50 was under 10 nM.

With `Clc1cc2cc(c1)-c1n[nH]c3ccc(cc13)OCCCNCCO2` [Example 143, 4-chloro-7,14-dioxa-10,19,20-triazatetracyclo[13.5.2.1^2,6.0^18,21]tricosa-1(20),2,4,6(23),15,17,21-heptaene], the IC50 is under 10 nM.

With `C[C@H]1COc2cncc(n2)-c2n[nH]c3ccc(cc23)O[C@@H](C)CCO1` [Example 51, (9S,13S)-9,13-dimethyl-7,10,14-trioxa-4,19,20,23-tetraazatetracyclo[13.5.2.1^2,6.0^18,21]tricosa-1(20),2(23),3,5,15(22),16,18(21)-heptaene], the IC50 was under 100 nM.

As for `O=C1COc2cc(cc(C3CCCCO3)c2)-c2n[nH]c3ccc(cc23)OCCCN1` (centres unmarked) [Example 218, 4-(oxan-2-yl)-7,14-dioxa-10,19,20-triazatetracyclo[13.5.2.1^2,6.0^18,21]tricosa-1(20),2(23),3,5,15,17,21-heptaen-9-one], the IC50 is under 10 nM.

For the molecule `C[C@@H]1CCOc2ccc3[nH]nc(c3c2)-c2cnn(c2)[C@H](C)CCO1` [Example 123, (6R,10R)-6,10-dimethyl-9,13-dioxa-4,5,18,19-tetraazatetracyclo[12.5.2.1^2,5.0^17,20]docosa-1(19),2(22),3,14(21),15,17(20)-hexaene], the IC50 is under 10 nM.

`C[C@@H]1CCN(C)C(=O)C[C@H](C)n2ncc(n2)-c2n[nH]c3ccc(cc23)O1` [Example 243]: the IC50 was under 100 nM.
